This note sets out measurements from patent publication US20250163057A1, “DCN-1 MODULATING COMPOUNDS AND METHODS OF USE THEREOF” (Cellarity, Inc., priority 2023, published 2025).

Experiment [1] deals with DCN1 (DCUND1) protein PONY domain (Homo sapiens (Human), UniProt Q96GG9). Put plainly: TR-FRET assay, DCN1 binding with FAM-labeled probe. In outline: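 Tb-DCN1 PONY domain (E. coli, biotin/streptavidin-Tb); FAM-labelled non-covalent inhibitor probe; TritonX buffer, 200 mM NaCl; 5 nM DCN1 + 20 nM probe or 0.31 nM DCN1 + 900 nM total probe; 0.1% DMSO; TR-FRET read 1, 5, 24 hrs.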
(Time-resolved FRET reads energy transfer from a long-lived donor to a nearby acceptor.)

Experiment [2] has as its system Cullin-3 (CUL3) neddylation. Put plainly: AlphaLISA assay for Cullin-3 (CUL3) neddylation in TF 1 cells. The experiment is classed as cell-based. To be noted: Homo sapiens, TF-1, 3 h, 3 hours treatment. A digest of the protocol: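 Neddylated CUL3 was quantified by AlphaLISA in lysates of TF 1 cells exposed for 3 h to test compound in IMDM without supplements. Percent inhibition set between vehicle and 1 μM DI-1548 positive control; IC50 derived by Hill-equation fitting of dose-response curves.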

Where [3] appears, read: 24 hr after treatment with compound, read-out: TR FRET IC50 24 hr.
The mark [4] stands for this setting: TR FRET IC50 1 hr (nM), 1 hr after treatment with compound.

Molecules are shown by their SMILES. Read-outs that look alike come from different tables or passages of the source.

Chain of DCN1 (DCUND1) protein PONY domain (Q96GG9 60-248): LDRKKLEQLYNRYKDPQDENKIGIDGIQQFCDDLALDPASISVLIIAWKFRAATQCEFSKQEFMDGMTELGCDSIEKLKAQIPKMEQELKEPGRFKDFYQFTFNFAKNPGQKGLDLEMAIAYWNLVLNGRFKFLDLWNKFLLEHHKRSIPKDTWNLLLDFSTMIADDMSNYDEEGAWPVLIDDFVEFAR

Regarding `CCN1C(=O)[C@@H](NC(=O)c2nccc(C(F)(F)F)n2)[C@H](c2ccc(F)cc2)c2c(CNC(=O)CC#N)nn(-c3ccccc3)c21` [Compound I-452, N-((4R,5S)-3-((2-cyanoacetamido)methyl)-7-ethyl-4-(4-fluorophenyl)-6-oxo-1-phenyl-4,5,6,7-tetrahydro-1H-pyrazolo[3,4-b]pyridin-5-yl)-4-(trifluoromethyl)pyrimidine-2-carboxamide], the IC50 was 1000 to 3000 nM in experiment [1] (setting [3]), 1000 to 3000 nM in experiment [1] (setting [4]) and above 1 µM in experiment [2].
On to `CCN1C(=O)[C@@H](NC(=O)c2cccc(C(F)(F)F)c2)[C@@H](c2ccc(F)cc2)c2c([C@H](C)NC#N)nn(-c3ccccc3)c21` [Compound I-530], for which the IC50 was at most 200 nM in experiment [1] (setting [3]), 200 to 1000 nM in experiment [1] (setting [4]) and at most 0.1 µM in experiment [2].
For `CCN1C(=O)[C@@H](NC(=O)c2cccc(C(F)(F)F)c2)[C@@H](c2ccccn2)c2c([C@@H](C)NC#N)nn(-c3ccccc3)c21` (mixture of isomers) [Compound I-680] the same measures were at most 200 nM, 200 to 1000 nM and at most 0.1 µM.
Turning to `CCN1C(=O)[C@@H](NC(=O)N2CCC[C@@H](C(F)(F)F)C2)C(c2ccc(F)cc2)c2c(C(=O)N3CCC[C@H]3C#N)nn(-c3ccccc3)c21` (single isomer, unassigned) [Compound I-464], the IC50 in experiment [1] (setting [3]) was 1000 to 3000 nM; in experiment [1] (setting [4]) it was 1000 to 3000 nM; in experiment [2], above 1 µM.
On to `CCN1C(=O)[C@H](NC(=O)c2cccc(C(F)(F)F)c2)[C@H](c2ccc(F)cc2)c2c(C(=O)N(CC#N)CCC(=O)OC)nn(-c3ccccc3)c21` (stereo in doubt) [Compound I-461], for which the values for the IC50 in experiment [1] (setting [3]), in experiment [1] (setting [4]) and in experiment [2] were 1000 to 3000 nM, 1000 to 3000 nM and above 1 µM, respectively.
In the case of `CCN1C(=O)[C@@H](NC(=O)c2cccc(C(F)(F)F)c2)[C@@H](c2ccc(F)cc2)c2c(C(=O)N3[C@H](C#N)C[C@H]4C[C@H]43)nn([C@H]3CCOC3)c21` (relative stereo) [Compound I-630, N-((4S*,5S*)-3-((1R,3S,5R)-3-cyano-2-azabicyclo[3.1.0]hexane-2-carbonyl)-7-ethyl-4-(4-fluorophenyl)-6-oxo-1-((S**)-tetrahydrofuran-3-yl)-4,5,6,7-tetrahydro-1H-pyrazolo[3,4-b]pyridin-5-yl)-3-(trifluoromethyl)benzamide], the results for the concentration for half-maximal inhibition (IC50) in experiment [1] (setting [3]), in experiment [1] (setting [4]) and in experiment [2] were at most 200 nM, at most 200 nM and at most 0.1 µM, respectively.
For `CCN1C(=O)[C@@H](NC(=O)c2cccc(C(F)(F)F)c2)[C@@H](c2ccc(F)cc2)c2c(C(=O)N3CS(=O)(=O)C[C@H]3C#N)nn(-c3ccccc3)c21` [Compound I-465], the IC50 in experiment [1] (setting [3]) is at most 200 nM; in experiment [1] (read-out: TR FRET IC50 1 hr, 1 hr after treatment with compound), at most 200 nM; in experiment [2] it was at most 0.1 µM.
On to `CCN1C(=O)[C@H](NC(=O)c2cccc(C(F)(F)F)c2)[C@H](c2ccc(C)cc2)c2c(C(=O)N(C)CC#N)nn(C3CC3)c21` [Compound I-494], for which the 50% inhibitory concentration (IC50) in experiment [1] (setting [3]) was 1000 to 3000 nM; in experiment [1] (setting [4]) it was 1000 to 3000 nM; in experiment [2] it was above 1 µM.
For `CCN1C(=O)[C@@H](NC(=O)c2cccc(C(F)(F)F)c2)[C@@H](C2CC2)c2c(C(=O)N3CCC[C@H]3C#N)nn(C3CC3)c21` [Compound I-454], the IC50 in experiment [1] (setting [3]) is 200 to 1000 nM; in experiment [1] (setting [4]), 1000 to 3000 nM; in experiment [2], at most 0.1 µM.
As to `CCN1C(=O)[C@@H](NC(=O)c2cccc(C(F)(F)F)c2)[C@@H](c2ccc(F)cc2)c2c(C(=O)N(C)C3(C#N)CCC3)nn(-c3ccccc3)c21` (racemic) [Compound I-689], the values for the IC50 in experiment [1] (setting [3]), in experiment [1] (setting [4]) and in experiment [2] were at most 200 nM, 1000 to 3000 nM and 0.1 to 1 µM, respectively.
Turning to `CCN1C(=O)[C@@H](NC(=O)c2cccc(C(F)(F)F)c2)[C@@H](C2CC2)c2c(C(=O)N(CC#N)CCCN(C)C)nn(C3CCOCC3)c21` [Compound I-683], the half-maximal inhibitory concentration (IC50) in experiment [1] (setting [3]) is at most 200 nM; in experiment [1] (setting [4]), 200 to 1000 nM; in experiment [2], at most 0.1 µM.

The IC50 is the concentration at which inhibition is half-maximal.
